Values of other authors as cited in patent US20100273749A1, “Method for Treating Dry-Eye Syndrome” (priority 2006, published 2010).

Tested on: ACAT
Conditions: several animal studies, nonselective ACAT inhibitors

Structure (SMILES) | reduction of atherosclerotic plaques
CC(C)c1cc(C(C)C)c(CC(=O)NS(=O)(=O)Oc2c(C(C)C)cccc2C(C)C)c(C(C)C)c1 [avasimibe] | promising reduction of atherosclerotic plaques
CCCCCCCCN1CCc2c(C)c(CC(=O)O)c(C)c(NC(=O)C(C)(C)C)c21 [pactimibe] | promising reduction of atherosclerotic plaques
